{
  "source": "paper PMC6107127",
  "about": "“Characteristics of the mitochondrial and cellular uptake of MPP^+, as probed by the fluorescent mimic, 4'I-MPP^+” (PLoS ONE, 2018)",
  "key": {"MN9D cells [1]": {"test_system": "MN9D cells", "test": "MTT cell viability assay", "type": "cell-based", "conditions": "Mus musculus, 16 h incubation", "description": "Cell viability was determined by the MTT [3-(4,5-dimethylthiazol-2-yl)-2,5-diphenyltetrazolium bromide)] assay. Briefly, cells were seeded on 96-well plates and allowed to grow to about 70–80% confluence. Prior to the experiment, culture media was replaced with KRB-HCO3^- containing desired concentrations of MPP^+ or 4'I-MPP^+ and incubated for 16 h at 37 °C. After the incubation, 10 μL of 5 mg/mL MTT solution was added to each well and incubated for 2 h at 37 °C. The resulting formazan was solubilized by the addition of 210 μL detergent solution [50% DMF/H2O (v/v), 20% SDS (w/v)] followed by incubation at 37 °C for 12 h. The cell viabilities were determined by quantifying solubilized formazan by measuring the difference in the absorbance at 570 nm and 650 nm. Results were expressed as % viability of MPP^+ or 4'I-MPP^+ treated cells with respect to control cells, which were treated under the same conditions except in the absence of the MPP^+ or 4'I-MPP^+."}, "[2]": {"test_system": "rat brain mitochondrial complex-I (NADH: ubiquinone oxidoreductase)", "test": "Ubiquinone dependent NADH oxidation (complex-I inhibition)", "type": "biochemical", "conditions": "200 μM", "description": "Isolated rat brain mitochondria were lysed by freeze-thawing in hypotonic media containing 25 mM K3PO4 and 5 mM MgCl2, pH 7.2 [22]. The complex-I (i.e. NADH: ubiquinone oxidoreductase) activity of mitochondrial membrane fragments were determined according to the procedure of Birch-Machin and Turnbull. Briefly, mitochondrial membranes (50 μg protein) were incubated with 130 μM NADH (final concentration) and Antimycine A (2 μg/mL) in a 1.0 mL assay solution containing 25 mM K3PO4, 5 mM MgCl2, 2 mM KCN, 2.5 mg/mL bovine serum albumin, pH 7.2, for 2 min at 37 °C with or without rotenone, MPP^+ or 4'I-MPP^+ (for further details see the corresponding figure legends). The complex-I mediated ubiquinone dependent NADH oxidation was initiated by adding ubiquinone-1 to a final concentration of 65 μM and the initial rates of the reactions were monitored by following the decrease in absorbance at 340 nm with respect to 425 nm reference wavelength for 5 min."}, "[3]": {"test": "Solubility in incubation media", "type": "physicochemical", "conditions": "concentrations above 200 μM"}, "MN9D cells [4]": {"test_system": "MN9D cells", "test": "Cellular uptake of MPP+ and 4'I-MPP+ (HPLC-UV / fluorescence)", "type": "cell-based, mouse", "conditions": "100 μM toxin, 60 min, 37 °C, KRB-HEPES", "description": "Cells were seeded into 12-well plates at 0.25 x 10^6 cells/well and grown 2–3 days to about 70–80% confluency. The media was removed and a solution containing 100 μM MPP^+ or 4'I-MPP^+ in warm KRB-HEPES (or without Ca^2+ and with 1.4 mM EGTA) was added to each well and incubated at 37 °C for the desired period of time (see Figure legends for further details). After the incubations, the media were removed and cells were washed with ice-cold KRB-HEPES. Washed cells were suspended in 1.0 mL of ice-cold KRB-HEPES and 50 μL aliquots were withdrawn for protein determination. The remaining cell suspensions were centrifuged at 5000 x g at 4 °C for 5 min and the cell pellets were treated with 75 μL of 0.1 M HClO4. The coagulated proteins were pelleted by centrifugation at 13,200 x g at 4 °C for 8 min and the MPP^+ or 4'I-MPP^+ contents of the supernatants were determined by C18-reversed-phase HPLC-UV (HPLC-UV) as previously described using standard curves constructed from authentic standards. The standard curves for HPLC-UV quantifications were constructed using authentic samples of MPP^+ and 4'I-MPP^+ under the same HPLC-UV separation conditions (S1 Fig).\nTo quantify 4'I-MPP^+ uptake by fluorescence, MN9D or HepG2 cells grown in glass bottomed plates, washed, and reconstituted with KRB-HEPES (1.0 mL), pH 7.4, and mounted on the stage of a Nikon ECLIPSE Ti-S inverted fluorescence microscope. […]"}, "[5]": {"test_system": "isolated MN9D cell mitochondria", "test": "Uptake into isolated MN9D cell mitochondria", "parameters": "species or system mouse", "conditions": "400 μM, 45 min at 37 °C", "description": "Intact mitochondria were isolated from MN9D cells according to the published procedure of Frezza et al.. The isolated intact mitochondrial preparations were suspended in KCl buffer and aliquots (5 μL) were withdrawn for protein determination. Desired amounts of mitochondrial suspensions were incubated with 400 μM MPP^+ or 4'I-MPP^+ in KCl buffer for 45 min at 37 °C. After the incubation, incubates were centrifuged at 7,000 x g at 4 °C for 10 min and the mitochondrial pellets were treated with 75 μL of 0.1 M HClO4."}},
  "data": [
    {"smiles": "C[n+]1ccc(-c2ccc(I)cc2)cc1", "note": "[4'I-MPP^+, 1-methyl-4-(4'-iodophenyl)pyridinium]", "values": [
      {"measurement": "IC50", "setting": "MN9D cells [1]", "value": "~40", "unit": "µM"},
      {"measurement": "inhibition of the complex-I activity", "setting": "[2]", "value": 46, "unit": "%"},
      {"measurement": "solubility in the incubation media", "setting": "[3]", "value": "low solubility"},
      {"measurement": "cellular uptake in 1 h", "setting": "MN9D cells [4]", "value": "1.2 nmoles/mg of protein"},
      {"measurement": "rate of uptake into isolated mitochondria", "setting": "[5]", "value": "faster than that of MPP^+"}
    ]}
  ]
}
